Results: patent US20140221385A1, “COMBINATIONS OF SEROTONIN RECEPTOR AGONISTS FOR TREATMENT OF MOVEMENT DISORDERS” (CONCIT PHARMA APS, priority 2011, published 2014)

What was measured:
[1] = tested on: unilaterally 6-OHDA-lesioned rats; experiment: L-DOPA induced AIMs and drugs screening test in the 6-OHDA rat model; type: in vivo; conditions: for L-DOPA induced AIMs (Lim+Ax+OI): Example X, FIG. 5; for L-DOPA-induced dyskinesia (AIMs): Example XIII
Experimental: 6-OHDA (6-hydroxydopamine) is a neurotoxin that selectively kills dopaminergic and noradrenergic neurons and induces a reduction of dopamine levels in the brain. Administration of L-DOPA to unilaterally 6-OHDA-lesioned rats induces abnormal involuntary movements (ATMs). These are axial, limb and oral movements that occur only on the body side that is […] to the lesion.
DA-denervating lesions are performed by unilateral injection of 6-OHDA in the ascending nigrostriatal pathway. Rats were anesthetized with pentobarbital sodium 40 mg/kg (i.p.) and positioned in a stereotactic frame. 6-OHDA is injected into the right ascending DA bundle at the following coordinates (in mm) relative to bregma and dural surface: (1) toothbar position −2.3, A=−4.4, L=1.2, V=7.8, (7.5 ug 6-OHDA), (2) toothbar position +3.4, A=−4.0, L=0.8, V=8.0 mm (6 ug 6-OHDA). The neurotoxin injections are performed at a rate of 1 ul/min, and the injection cannula is left in place for an additional 2-3 min thereafter. Two weeks after surgery rats with nearly complete (>90%) lesions are selected by means of an amphetamine-induced rotation test. The animals are placed in plastic Perspex bowls (30 cm in diameter) and the rotational behavior (360° turns) is recorded by an automated rotometer for 90 min after the i.p. injection of 2.5 mg/kg d-amphetamine sulphate. […] Animals are then allocated into two well-matched sub-groups (according to the amphetamine rotation) and receive daily treatment as described below.
L-DOPA methyl ester (Sigma-Aldrich, Germany) is given at the dose of 6 mg/kg, combined with 15 mg/kg of benserazide HCl (Sigma-Aldrich, Germany). […] The selected rats are allocated groups of 9-12 animals each, which are balanced with the respect to AIM severity. The animals are then treated with the drug and drug combinations as described below.
AIMs ratings are performed by an investigator who was kept unaware of the pharmacological treatment administered to each rat (experimentally blinded). […] The AIM's are classified into four subtypes:
(A) axial AIMs, i.e., dystonic or choreiform torsion of the trunk and neck towards the side contralateral to the lesion. In the mild cases: lateral flexion of the neck or torsional movements of the upper trunk towards the side contralateral to the lesion. With repeated injection of L-DOPA, this movement may develop into a pronounced and continuous dystonia-like axial torsion. (B) limb AIMs, i.e., jerky and/or dystonic movements of the forelimb contralateral to the lesion. In mild cases: hyperkinetic, jerky stepping movements of the forelimb contralateral to the lesion, or small circular movements of the forelimb to and from the snout. As the severity of dyskinesia increases (which usually occurs with repeated administration of L-DOPA), the abnormal movements increase in amplitude, and assume mixed dystonic and hyperkinetic features. Dystonic movements are caused by sustained co-contraction of agonist/antagonist muscles; they are slow and force a body segment into unnatural positions. Hyperkinetic movements are fast and irregular in speed and direction. […] (C) orolingual AIMs, i.e., twitching of orofacial muscles, and bursts of empty masticatory movements with protrusion of the tongue towards the side contralateral to the lesion. This form of dyskinesia affects facial, tongue, and masticatory muscles. It is recognizable as bursts of empty masticatory movements, accompanied to a variable degree by jaw opening, lateral translocations of the jaw, twitching of facial muscles, and protrusion of the tongue towards the side contralateral to the lesion. […] Each of the four subtypes are scored on a severity scale from 0 to 4, where 0=absent, 1=present during less than half of the observation time, 2=present for more than half of the observation time, 3=present all the time but suppressible by external stimuli, and 4=present all the time and not suppressible by external stimuli.

[2] = tested on: naïve rats; experiment: Open field test (Example VI); type: in vivo, rat; conditions: pentobarbital 15 mg/kg i.p. 30 min before test, positive control; FIG. 3
Experimental: The open field test was used to determine the effects of drug on locomotor activity. Rats were put in open-field chambers (dimensions 40 cm×40 cm×40 cm) 30 minutes after dosing. After a 15 minutes habituation, locomotion were recorded and analysed by Enthovision Video Tracking Software (Noldus Information Technology, Netherlands) for 60 minutes. All locomotor activities were done during dark phase and to eliminate olfactory cues, the arena was thoroughly cleaned with 70% v/v ethanol between each test.
Group setting for compound tests: Vehicle: Saline, i.p., 30 min before test, n=10 Positive control: Pentobarbital 15 mg/kg, i.p. 30 min before test, n=10
Zolmitriptan 3 mg/kg, i.p. 5 min before buspirone Buspirone 1 mg/kg, i.p. 30 min before test, n=10
Statistical analysis: The total locomotor activity is expressed as total moved distance (cm) and average velocity (cm/s) during 60 minutes. The data were analysed using One-Way ANOVA and the Tukey post-hoc test. The locomotor activity in six time point is expressed as moved distance (cm) and average velocity (cm/s) every 10 minutes. The data were analysed using One-Way ANOVA and the Tukey post-hoc test in each time point.

[3] = tested on: Sprague-Dawley (SD) rats; experiment: Rotarod test (Example V); type: in vivo, rat; conditions: pentobarbital 15 mg/kg i.p. 30 min before test, positive control; FIG. 2
Experimental: In brief, the animals (30 SD male rats (180-220 g, bred in house, originally from SLAC Laboratory Animal Co. Ltd) at 9-week of age) were trained twice a day for a 3-day period. […] Each training trial was ended if the animal fell off or grips the device and spun around for two consecutive revolutions. The time that rat stayed on the Rotarod was recorded. The staying duration recorded at last training trail was used as baseline. Rats were grouped according a randomly distribution of baseline.
For the test session on the fourth day, the rats were evaluated on the Rotarod with the same setting as above at 30 min after dosing. The rats were dosed with drugs as described below. Dosing and Rotarod measurement were conducted by two scientists separately. Pentobarbital (15 mg/kg. i.p.) was used a as a positive control.
Vehicle: Saline, i.p., 30 min before test, n=10 Positive control: Pentobarbital 15 mg/kg, i.p. 30 min before test, n=10
The data were analyzed using One-Way ANOVA and the Tukey post-hoc test.

[4] = tested on: LID; conditions: cited from earlier work
[5] = tested on: Huntington's disease; conditions: one patient suffering from Huntington's disease; cited from earlier work
[6] = tested on: Parkinson's disease; conditions: cited from earlier work
[7] = tested on: 6-OHDA unilateral lesion model rats; experiment: Forepaw adjusting steps (FAS) test, 6-OHDA induced akinesia; type: in vivo, rat; conditions: for average percentage of adjusting steps (impaired paw to intact paw): L-DOPA 3 mg/kg with 15 mg/kg benserazide s.c. 60 min pretest

CN(C)CCc1c[nH]c2ccc(C[C@H]3COC(=O)N3)cc12 [zolmitriptan, (S)-4-({3-[2-(dimethylamino)ethyl]-1H-indol-5-yl}methyl)-1,3-oxazolidin-2-one]
L-DOPA-induced AIM (Total AIMs) ([1]; Example IV, FIG. 1, zolmitriptan 10 mg/kg i.p. given alone): did not reduce AIM

CCCC(C)C1(CC)C(=O)NC(=O)NC1=O (stereo not shown) [pentobarbital]
open field locomotor activity (total move distance) [2]: significantly reduced motor performance | rotarod performance (time on the rod) [3]: significantly reduced time spend on the rotarod

Fc1ccc(-c2cncc(CNC[C@H]3CCc4ccccc4O3)c2)cc1 [sarizotan, 1-[(2R)-3,4-dihydro-2H-chromen-2-yl]-N-([5-(4-fluorophenyl)pyridin-3-yl]methyl)methanamine]
LID ([4]; phase 2A study and open labeled study): reduced LID | LID, effect compared to placebo ([4]; several large phase 2b studies): no significant effects

O=C1[C@@H]2[C@@H]3CC[C@@H](C3)[C@@H]2C(=O)N1CCCCN1CCN(c2ncccn2)CC1 [tandospirone, (1R,2R,6S,7S)-4-{4-[4-(pyrimidin-2-yl)piperazin-1-yl]butyl}-4-azatricyclo[5.2.1.02,6]decane-3,5-dione]
L-DOPA induced AIMs (Lim+Ax+OI) ([1]; tandospirone 1 mg/kg i.p. 30 min before test): partially and briefly reduce AIMs | L-DOPA induced AIMs (Lim+Ax+OI) ([1]; tandospirone 2 mg/kg i.p. 30 min before test): partially and briefly reduce AIMs | L-DOPA-induced dyskinesia (AIMs) ([1]; tandospirone 1 and 2 mg/kg i.p. 25 min before test): significantly reduced L-DOPA-induced dyskinesia

O=C1[C@H]2CCCC[C@H]2C(=O)N1CCCCN1CCN(c2nsc3ccccc23)CC1 [perospirone, (3aR, 7aS)-2-{4-[4-(1,2-benzisothiazol-3-yl)piperazin-1-yl]butyl}hexahydro-1H-isoindole-1,3(2H)-dione]
involuntary movement [5]: could reduce involuntary movement

O=C1CC2(CCCC2)CC(=O)N1CCCCN1CCN(c2ncccn2)CC1 [buspirone, 8-[4-(4-pyrimidin-2-ylpiperazin-1-yl)butyl]-8-azaspiro[4.5]decane-7,9-dione]
disability ratings ([6]; 100 mg/day): significant worsening of disability ratings | dyskinesia ([6]; 100 mg/day): reduced dyskinesia | effects on Parkinson's disease or dyskinesia ([6]; 10-60 mg/day): did not have any effects on Parkinson's disease or dyskinesia | L-DOPA-induced AIM (Total AIMs) ([1]; Example IV, FIG. 1, buspirone 1 mg/kg i.p. given alone): only partly reduced AIM | L-DOPA-induced AIM (Total AIMs) ([1]; Example VII, FIG. 4, buspirone 0.5 mg/kg i.p. given alone): only partly reduced AIM | L-DOPA-induced dyskinesia (AIMs) ([1]; buspirone 0.25 and 0.5 mg/kg s.c. 25 min before test): significantly reduced L-DOPA-induced dyskinesia

N[C@@H](Cc1ccc(O)c(O)c1)C(=O)O [L-DOPA, 3,4-dihydroxyphenylalanine]
average percentage of adjusting steps (impaired paw to intact paw) ([7]; first study): 77.8% | 6-OHDA induced akinesia, forelimb use ([7]; first study, acute L-DOPA 3 mg/kg with 15 mg/kg benserazide): alleviated 6-OHDA induced akinesia by increasing the forelimb use | forelimb use ([7]; second study, L-DOPA 3 mg/kg with 15 mg/kg benserazide HCl): significantly increase the forelimb use | average percentage of adjusting steps (impaired paw to intact paw) ([7]; second study): 77.7%
